# Results published in patent publication US4774248A, “Methods of treating depression and depressive states using 5-phenyl-1,4,5,6-tetrahydropyrimidine derivatives” (priority 1985, dated 1988).
# Entries after “also recorded” stand apart in the source; their conditions may differ.
# Experiments:
# [1] = test system: trembling and head twitches induced by 5-hydroxytryptophan (5-HTP); test: Interaction with 5-hydroxytryptophan in association with an MAOI (nialamide); type: in vivo, male mice; conditions: for trembling: reference β-adrenergic stimulants; for all the effects of 5-HTP: reference substances, in the presence of an MAOI
# Protocol: The purpose of the procedure used is to investigate the activity of each product according to the invention as regards the trembling induced by 5-hydroxytryptophan (5-HTP) in association with an MAOI (in this case nialamide).
# Each test product, in solution in distilled water, is administered intraperitoneally in a volume of 20 ml/kg to male mice.
# Groups of 10 mice receive nialamide (20 mg/kg, administered gastrically) at time T-18 h, each test product at time T-0.5 h and then (±)-5-HTP (20 mg/kg, administered intraperitoneally) at time T. Immediately after the injection of the (±)-5-HTP, the mice are individually placed in transparent plastic boxes. The generalized trembling, the partial trembling and the head twitches are noted on a yes/no basis for 2 h.
# [2] = test system: mice; test: Behavioral despair (forced immersion); type: in vivo; conditions: mice which have been forcibly immersed, i.p.
# Protocol: (§1) The results of toxicological and neuropsychopharmacological tests which were carried out with the products according to the invention have been summarized below. In these tests, solutions of the said products in distilled water were administered intraperitoneally in a volume of 20 ml/kg to male mice and in a volume of 5 ml/kg to male rats.
# Half an hour after they have received CRL 41 378, groups of 6 mice are placed in a beaker filled with water to a height of 6 cm. The total period of immobility between the 2nd and 6th minutes following immersion is noted.
# [3] = test system: male mice; test: Acute toxicity, intraperitoneal (LD0, LD30, LD60, LD100); type: in vivo
# Protocol: as §1
# [4] = test system: mice; test: Spontaneous motility (actimeter); type: in vivo; conditions: i.p.
# Protocol: as §1
# 0.5 h after they have received CRL 41 378, the mice (6 per dose, 12 control animals) are placed in an actimeter, where their motility is recorded for 30 minutes.
# [5] = test system: hypothermia and ptosis induced by reserpine; test: Interaction with reserpine; type: in vivo; conditions: mice, i.p.; reserpine 2.5 mg/kg
# Protocol: as §1
# Four hours after the intraperitoneal injection of 2.5 mg/kg of reserpine, groups of 12 mice receive CRL 41 378.
# [6] = test system: mice; test: Motility reduced by hypoxic aggression (acute hypobaric anoxia); type: in vivo; conditions: i.p.
# Protocol: In these tests, solutions of the said products in distilled water were administered intraperitoneally in a volume of 20 ml/kg to male mice and in a volume of 5 ml/kg to male rats.
# [7] = test system: rats; test: Overall behavior and reactivities in rats; type: in vivo; conditions: i.p.
# Protocol: as §1
# (§2) Groups of 3 animals are observed before and then 0.25 h, 0.50 h, 1 h, 2 h, 3 h and 24 h after the administration of CRL 41 378. The following observations are made:
# (§3) Groups of 3 animals are observed before and then 0.25 h, 0.50 h, 1 h, 2 h, 3 h and 24 h after the administration of CRL 41 329.
# [8] = test system: mice; test: Intergroup aggressiveness; type: in vivo; conditions: mice, i.p.
# Protocol: as §1
# After they have stayed for 3 weeks in the two halves of a cage divided by an opaque partition, groups of 3 mice receive CRL 41 378. Half an hour later, the two groups from the same cage are brought together by removal of the partition and the number of fights which occur in 10 minutes is noted.
# [9] = test system: hypothermia, righting behavior and stereotypies induced by apomorphine; test: Interaction with apomorphine in mice; type: in vivo; conditions: i.p.
# Protocol: as §1
# CRL 41 378 is administered to groups of 6 mice 30 minutes before the subcutaneous injection of 1 or 16 mg/kg of apomorphine.
# [10] = test system: hypothermia, trembling and peripheral cholinergic symptoms induced by oxotremorine; test: Interaction with oxotremorine; type: in vivo; conditions: mice, i.p.; oxotremorine 0.5 mg/kg
# Protocol: as §1
# CRL 41 378 is administered to groups of 6 mice 0.5 h before the intraperitoneal injection of 0.5 mg/kg of oxotremorine.
# [11] = test system: central nervous system (CNS); test: Neuropsychopharmacological profile (conclusions of the tests); type: in vivo, mice and rats; conditions: for overall neuropsychopharmacological profile: summary
# Protocol: as §1
# [12] = test system: mice; test: Motility reduced by habituation to the enclosure; type: in vivo; conditions: i.p.
# Protocol: as §1
# After they have stayed in the actimeters for 18 hours, the mice (6 per dose, 12 control animals) receive CRL 41 378. They are immediately returned to their respective enclosures and, half an hour later, their motility is recorded for 30 minutes.
# [13] = test system: mice; test: Electric shock; type: in vivo; conditions: i.p.
# Protocol: as §1
# The test is performed on groups of 10 mice 30 minutes after the administration of CRL 41 378.
# [14] = test system: mice; test: Overall behavior and reactivities in mice; type: in vivo; conditions: i.p.
# Protocol: as §1, §2, §3
# [15] = test system: hypothermia induced by apomorphine; test: Interaction with apomorphine by gastric administration; type: in vivo; conditions: Mus musculus, male mice, apomorphine 16 mg/kg s.c., read-out: dose as from which the hypothermia induced by apomorphine is opposed
# Protocol: Each test product is administered gastrically to male mice, in a volume of 20 ml/kg, 0.50 h before the subcutaneous injection of 16 mg/kg of apomorphine.
# [16] = test system: pregnant rabbits; test: Teratogenic effects on pregnant rabbits; type: in vivo
# [17] = test system: depressions and depressive states; test: Clinical trials in depression and depressive states; type: in vivo, human
# Protocol: The clinical trials which have been undertaken have made it possible to determine that the daily dose to be administered orally to adults, in the treatment of depressions and depressive states, is generally between 3 and 120 mg for the products of the formulae Ia and Ib according to the invention.
# [18] = i.p., nialamide + (±)-5-HTP, male mice
smiles,measurement,setting,value
"CC(C)(C)NCC(O)c1cc(O)cc(O)c1 (stereo not drawn) [terbutaline, reference compound]",head twitches,[1]; [18],no modification of the trembling or head twitches
same,trembling,[1]; 5-HTP + MAOI,no modification of the trembling or head twitches
"CC(C)NCC(O)c1cc(O)cc(O)c1 (stereo not drawn) [ociprenaline, reference compound]",head twitches,[1]; [18],no modification of the trembling or head twitches
same,trembling,[1]; 5-HTP + MAOI,no modification of the trembling or head twitches
"CN1C=NCC(c2ccccc2)C1.Cl (stereo not drawn) [CRL 41 337, 1-methyl-5-phenyl-1,4,5,6-tetrahydropyrimidine hydrochloride]",period of immobility,[2]; hydrochloride,no modification of the period of immobility due to despair; also recorded: no effect on the immobility due to despair
same,LD0 (maximum non-lethal dose),[3]; intraperitoneal,greater than 256 mg/kg
same,LD60,[3]; intraperitoneal,about 500 mg/kg
same,LD100 (minimum dose lethal to all the animals),[3]; intraperitoneal,less than or equal to 1000 mg/kg
same,spontaneous motor activity,[4],a decrease in the motor activity
same,action on hypothermia induced by reserpine,[5],"antagonism of the hypothermia induced by apomorphine, reserpine and oxotremorine"
same,action on ptosis induced by reserpine,[5],antagonism of the ptosis induced by reserpine
same,motor recovery after acute hypobaric hypoxia,[6],"at high doses, CRL 41 337 paradoxically causes an improvement in the motor recovery of mice after acute hypobaric hypoxia"
same,overall behavior and reactivities,[7]; 1 and 4 mg/kg,no distinct modification of the behavior and reactivities compared with the control animals
same,overall behavior and reactivities,[7]; 16 and 64 mg/kg,mydriasis
same,intergroup aggressiveness (number of fights),[8],a decrease in the intergroup aggressiveness
same,action on hypothermia induced by apomorphine,[9],"antagonism of the hypothermia induced by apomorphine, reserpine and oxotremorine"
same,action on hypothermia induced by oxotremorine,[10],"antagonism of the hypothermia induced by apomorphine, reserpine and oxotremorine"
same,antidepressant effects,[11]; i.p.,antidepressant effects
same,peripheral anticholinergic activity,[11]; i.p.,no anticholinergic action
same,stimulant effects,[11]; i.p.,no stimulation of the spontaneous motor activity
same,peripheral α-adrenergic stimulant effects,"[11]; i.p., hydrochloride",peripheral α-adrenergic stimulant effects; also recorded: mydriasis in rats
same,sedative effects,"[11]; i.p., hydrochloride",sedative effects; also recorded: hypothermia
same,overall neuropsychopharmacological profile,[11]; hydrochloride,acts principally as an antidepressant; also recorded: resemble those of β-adrenergic stimulants
same,resumption in the motor activity of mice accustomed to their enclosure,[12],a resumption in the motor activity of mice accustomed to their enclosure
same,lethal effects of electric shock,[13],"at a high dose, CRL 41 337 causes aggravation of the lethal effects of electric shock"
same,overall behavior and reactivities,[14]; 128 mg/kg,moderate hypothermia (-1.6 °C one hour after administration) for 3 h
same,moderate hypothermia,"[14]; 128 mg/kg, one hour after administration",-1.6 °C
same,overall behavior and reactivities,[14]; 2 to 32 mg/kg,no distinct modification of the behavior and reactivities compared with the control animals
"CC1=NCC(c2ccccc2)CN1.Cl (stereo not drawn) [CRL 41 352, 2-methyl-5-phenyl-1,4,5,6-tetrahydropyrimidine hydrochloride]",period of immobility,[2],"no decrease in the period of immobility due to ""despair"""
same,toxic signs in the animals treated,[3]; 64 mg/kg i.p.,all the animals treated exhibit sedation and a decrease in the breathing rate
same,LD0 (maximum non-lethal dose),[3]; intraperitoneal,greater than 64 mg/kg
same,LD30,[3]; intraperitoneal,~128 mg/kg
same,minimal effective dose,[15],≥ 0.5 mg/kg
same,action on hypothermia induced by reserpine,[5],more moderate antagonism of the hypothermia induced by reserpine
same,overall behavior and reactivities,[7]; 4 mg/kg and 16 mg/kg,mydriasis
same,overall behavior and reactivities,[7]; 16 mg/kg,a decrease in the breathing rate
same,intergroup aggressiveness (number of fights),[8],a decrease in the number of fights in the intergroup aggressiveness test
same,action on hypothermia induced by apomorphine,[9],significant antagonism (as from the lowest doses used) of the hypothermia induced by apomorphine and oxotremorine
same,analogy with β-adrenergic stimulants in the 5-HTP procedure,[1]; 5-HTP + MAOI,effects analogous to those of isoprenaline
same,intensity of potentiation of 5-HTP effects,"[1]; higher doses, 5-HTP + MAOI, male mice",the potentiation being very intense at the doses of 8 to 32 mg/kg
same,head twitches,[1]; [18],distinctly potentiate the partial trembling and the head twitches
same,partial trembling,[1]; [18],distinctly potentiate the partial trembling and the head twitches
same,action on hypothermia induced by oxotremorine,[10],significant antagonism (as from the lowest doses used) of the hypothermia induced by apomorphine and oxotremorine
same,teratogenic effects,[16],devoid of harmful teratogenic effects on pregnant rabbits
same,antidepressant effects,[11]; i.p.,antidepressant effects which are very distinct
same,sedative effects,[11]; i.p.,sedative effects appearing at very high doses
same,stimulant effects,[11]; i.p.,"a stimulant effect which is very moderate, appearing at high doses"
same,overall neuropsychopharmacological profile,[11],principally an antidepressant having a very slight stimulant component and a very weak sedative component
same,resumption in the motor activity of mice accustomed to their enclosure,[12],a resumption in the motor activity of mice accustomed to their enclosure
same,effectiveness in ambulant patients with depressive symptomatology,"[17]; asthenia, slowing down or both psycho-intellectual and motor inhibition",particularly effective
same,results in human therapy (depression),[17]; daily oral administration to adults,excellent results
same,overall behavior and reactivities,"[14]; 0.5 mg/kg, 2 mg/kg, 8 mg/kg and 32 mg/kg",no distinct modification of the behavior and reactivities
"CNCCCN1c2ccccc2CCc2ccccc21 [desipramine, reference compound]",all the effects of 5-HTP,[1],potentiate all the effects of 5-HTP in the presence of an MAOI
"CC(N)Cc1ccccc1 (stereo not drawn) [amphetamine, reference compound]",all the effects of 5-HTP,[1],potentiate all the effects of 5-HTP in the presence of an MAOI
"CCNC(C)Cc1cccc(C(F)(F)F)c1 (stereo not drawn) [fenfluramine, reference compound]",all the effects of 5-HTP,[1],potentiate all the effects of 5-HTP in the presence of an MAOI
"CC(C)NCC(O)c1ccc(O)c(O)c1 (stereo not drawn) [isoprenaline, reference compound]",head twitches,[1]; [18],distinct potentiation of the trembling and head twitches
same,trembling,[1]; 5-HTP + MAOI,distinct potentiation of the trembling and head twitches
"CC(NCCc1ccc(O)cc1)C(O)c1ccc(O)cc1 (stereo not drawn) [ritodrine, reference compound]",head twitches,[1]; [18],no modification of the head twitches
same,trembling,[1]; 5-HTP + MAOI,moderate potentiation of the trembling
"CC(Cc1ccc(O)cc1)NCC(O)c1cc(O)cc(O)c1 (stereo not drawn) [fenoterol, reference compound]",head twitches,[1]; [18],moderate potentiation of the head twitches
same,trembling,[1]; 5-HTP + MAOI,distinct potentiation of the trembling
"CC(C)(C)NCC(O)c1ccc(O)c(CO)c1 (stereo not drawn) [salbutamol, reference compound]",head twitches,[1]; [18],no modification of the head twitches
same,trembling,[1]; 5-HTP + MAOI,moderate potentiation of the trembling
